# Reference: US10159672B2 (PARION SCIENCES, INC., priority 2011, dated 2018)
# Tests used:
# ENaC = target: T1, ENaC (Canis lupus familiaris, UniProt A0A8I3MKE6+A0A8I3Q679+Q95165); test: In vitro sodium channel blocking activity and reversibility (short circuit current, Ussing chambers); type: cell-based, canine
# T1 construct: using primary cultures of canine bronchial epithelial cells; endogenous in cells; host or cells: primary canine bronchial epithelial cells cultured at air-liquid interface
# T1 sequence (A0A8I3Q679 1-649): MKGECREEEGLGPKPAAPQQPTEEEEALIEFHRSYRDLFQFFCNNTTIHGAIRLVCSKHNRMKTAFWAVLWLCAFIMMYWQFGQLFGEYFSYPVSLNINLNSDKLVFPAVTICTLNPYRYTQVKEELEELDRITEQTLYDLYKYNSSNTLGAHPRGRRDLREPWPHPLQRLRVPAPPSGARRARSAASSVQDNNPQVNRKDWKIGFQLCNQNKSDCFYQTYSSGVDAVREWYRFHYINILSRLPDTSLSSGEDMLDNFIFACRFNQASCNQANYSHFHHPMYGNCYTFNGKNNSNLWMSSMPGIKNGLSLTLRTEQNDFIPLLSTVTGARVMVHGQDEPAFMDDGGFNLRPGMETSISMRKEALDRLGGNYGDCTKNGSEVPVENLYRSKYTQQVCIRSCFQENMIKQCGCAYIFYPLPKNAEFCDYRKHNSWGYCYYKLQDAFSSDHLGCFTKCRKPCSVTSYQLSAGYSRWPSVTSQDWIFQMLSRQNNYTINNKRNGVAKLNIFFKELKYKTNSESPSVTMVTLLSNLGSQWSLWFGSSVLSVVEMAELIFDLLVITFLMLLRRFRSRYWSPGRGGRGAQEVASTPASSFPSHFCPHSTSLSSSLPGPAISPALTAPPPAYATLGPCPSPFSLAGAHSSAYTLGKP
# T1 sequence (Q95165 1-641): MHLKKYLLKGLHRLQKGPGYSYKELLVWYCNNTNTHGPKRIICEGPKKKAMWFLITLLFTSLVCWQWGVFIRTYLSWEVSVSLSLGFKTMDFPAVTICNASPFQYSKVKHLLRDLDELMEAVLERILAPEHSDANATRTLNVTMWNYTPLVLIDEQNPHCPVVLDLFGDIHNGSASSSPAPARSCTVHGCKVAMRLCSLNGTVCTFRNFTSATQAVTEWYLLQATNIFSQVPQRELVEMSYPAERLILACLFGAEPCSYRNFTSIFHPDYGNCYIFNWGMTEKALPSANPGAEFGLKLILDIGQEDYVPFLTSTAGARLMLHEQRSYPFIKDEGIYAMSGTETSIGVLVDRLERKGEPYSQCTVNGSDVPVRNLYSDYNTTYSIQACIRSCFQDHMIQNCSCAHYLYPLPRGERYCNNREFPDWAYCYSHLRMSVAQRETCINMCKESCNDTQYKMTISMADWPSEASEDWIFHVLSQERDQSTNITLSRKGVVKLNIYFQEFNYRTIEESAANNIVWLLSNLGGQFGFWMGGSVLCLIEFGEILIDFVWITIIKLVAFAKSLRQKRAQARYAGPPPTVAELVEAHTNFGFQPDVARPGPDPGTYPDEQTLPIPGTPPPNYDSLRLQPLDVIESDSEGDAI
# T1 sequence (A0A8I3MKE6 1-646): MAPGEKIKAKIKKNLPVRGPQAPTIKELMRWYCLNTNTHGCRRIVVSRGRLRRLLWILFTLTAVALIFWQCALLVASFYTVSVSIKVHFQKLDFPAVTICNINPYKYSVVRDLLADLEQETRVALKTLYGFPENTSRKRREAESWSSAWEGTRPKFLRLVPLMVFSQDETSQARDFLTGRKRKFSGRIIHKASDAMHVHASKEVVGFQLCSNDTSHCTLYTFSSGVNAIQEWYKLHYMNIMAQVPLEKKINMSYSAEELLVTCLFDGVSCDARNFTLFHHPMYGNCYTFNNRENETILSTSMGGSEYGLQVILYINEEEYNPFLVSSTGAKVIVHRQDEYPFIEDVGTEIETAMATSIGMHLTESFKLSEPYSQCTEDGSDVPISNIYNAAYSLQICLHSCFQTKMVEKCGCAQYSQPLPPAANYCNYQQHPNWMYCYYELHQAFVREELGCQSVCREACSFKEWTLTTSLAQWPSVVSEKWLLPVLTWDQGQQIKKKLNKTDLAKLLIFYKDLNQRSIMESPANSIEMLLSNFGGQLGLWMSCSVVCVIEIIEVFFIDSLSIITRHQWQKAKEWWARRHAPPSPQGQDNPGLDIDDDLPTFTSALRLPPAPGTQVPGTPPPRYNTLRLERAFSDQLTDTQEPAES
# Method: One assay used to assess mechanism of action and/or potency of the compounds of the present invention involves the determination of lumenal drug inhibition of airway epithelial sodium currents measured under short circuit current (ISC) using airway epithelial monolayers mounted in Ussing chambers. Cells obtained from freshly excised human, dog, sheep or rodent airways are seeded onto porous 0.4 micron Snapwell™ Inserts (CoStar), cultured at air-liquid interface (ALI) conditions in hormonally defined media, and assayed for sodium transport activity (ISC) while bathed in Krebs Bicarbonate Ringer (KBR) in Using chambers. All test drug additions are to the lumenal bath with half-log dose addition protocols (from 1×10^−11 M to 3×10^−5 M), and the cumulative change in ISC (inhibition) recorded. All drugs are prepared in dimethyl sulfoxide as stock solutions at a concentration of 1×10^−2 M and stored at −20° C. […] After the maximal concentration ([…]) is administered, the lumenal bath is exchanged three times with fresh drug-free KBR solution, and the resultant ISC measured after each wash for approximately 5 minutes in duration. Reversibility is defined as the percent return to the baseline value for sodium current after the third wash. All data from the voltage clamps are collected via a computer interface and analyzed off-line.
# Dose-effect relationships for all compounds are considered and analyzed by the Prism 3.0 program. […] The potency of the sodium channel blocking activity of representative compounds in freshly excised cell from canine airways is shown in Table 2.
# [1] = Human plasma protein binding; type: in vitro ADME; details: n=6, read-out: Human Plasma Protein Binding, bound to plasma proteins (converted)
# [2] = tested on: Canine Bronchial Epithelial Cells; test: Durability of retention of airway surface liquid; type: cell-based
# Rat Hepatocyte = test: Rat hepatocyte metabolism; type: in vitro ADME; details: 24-hour incubation
structure (smiles),measurement,setting,value
"CN(C)C(=O)[C@H](CCCCNC(=N)N)NC(=O)[C@H](CCc1ccc(CCCCNC(=N)NC(=O)c2nc(Cl)c(N)nc2N)cc1)N(C)C [Compound I, 3,5-diamino-6-chloro-N-(N-(4-(4-((S)-3-(dimethylamino)-4-((S)-1-(dimethylamino)-6-guanidino-1-oxohexan-2-ylamino)-4-oxobutyl)phenyl)butyl)carbamimidoyl)pyrazine-2-carboxamide]",Potency compared to amiloride,"ENaC; Ussing chamber, primary cultures of canine bronchial epithelial cells",> 100 fold
same,IC50,"ENaC; canine bronchial epithelial cells, n=5, read-out: Potency (IC50) on Canine Bronchial Epithelial Cells",5.3 nM
same,Emax,"ENaC; with 3 washes, n=3, read-out: Reversal of Maximal Effect on Canine Bronchial Epithelial Cells (effect lost)",6.8 ± 5.1%
same,fraction unbound,[1],0.2
same,"Durability of Retention of Airway Surface Liquid, fluid retained","[2]; 8 hours after drug delivery, n=3",94±5%
same,"Durability of Retention of Airway Surface Liquid, fluid retained","[2]; 24 hours after drug delivery, n=2",56±6%
same,Rat Hepatocyte Metabolism,Rat Hepatocyte,No evidence of significant metabolism
